1 compound from patent publication US7091038B2, “Ecdysone receptor-based inducible gene expression system” (RheoGene, Inc., priority 2000, dated 2006) can be followed below.

One experiment has as its target T1, GAL4RXR + VP16DmEcR (Drosophila melanogaster, UniProt P34021).
T1 sequence (P34021 254-878): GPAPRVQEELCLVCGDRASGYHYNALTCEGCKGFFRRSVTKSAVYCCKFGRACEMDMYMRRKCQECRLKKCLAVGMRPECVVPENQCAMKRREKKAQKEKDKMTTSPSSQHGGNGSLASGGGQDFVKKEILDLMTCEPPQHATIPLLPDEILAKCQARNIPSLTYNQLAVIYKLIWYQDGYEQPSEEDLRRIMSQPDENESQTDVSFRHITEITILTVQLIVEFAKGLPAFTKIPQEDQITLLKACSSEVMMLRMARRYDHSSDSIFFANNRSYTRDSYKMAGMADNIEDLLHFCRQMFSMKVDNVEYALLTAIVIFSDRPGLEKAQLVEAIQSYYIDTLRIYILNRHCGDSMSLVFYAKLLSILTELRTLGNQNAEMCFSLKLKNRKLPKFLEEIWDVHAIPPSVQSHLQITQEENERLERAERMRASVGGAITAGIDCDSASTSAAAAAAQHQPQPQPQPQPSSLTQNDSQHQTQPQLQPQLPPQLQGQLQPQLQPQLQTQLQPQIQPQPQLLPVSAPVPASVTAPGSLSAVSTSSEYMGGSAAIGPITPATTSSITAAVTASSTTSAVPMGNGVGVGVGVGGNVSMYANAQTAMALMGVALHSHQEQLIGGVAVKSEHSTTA
T1 sequence (P28700 206-467 partner limits assumed): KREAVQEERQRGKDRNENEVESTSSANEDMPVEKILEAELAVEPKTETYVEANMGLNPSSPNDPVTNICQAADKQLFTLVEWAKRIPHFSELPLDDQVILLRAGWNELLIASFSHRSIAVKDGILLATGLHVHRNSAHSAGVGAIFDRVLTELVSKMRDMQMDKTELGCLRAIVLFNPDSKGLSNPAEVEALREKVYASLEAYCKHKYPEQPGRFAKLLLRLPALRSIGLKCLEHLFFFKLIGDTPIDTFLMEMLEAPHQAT
In words: Transactivation of reporter gene through switch 1.4 in 293 cells. The experiment is classed as cell-based, Mus musculus; Drosophila melanogaster. Conditions: switch 1.4, pGAL4RELuc. The protocol: This construct was prepared in the same way as switch 1.3 except CfEcRCDEF was replaced with DmEcRCDEF (SEQ ID NO: 6).
(§1) The cells were harvested and reporter activity was assayed.
(§2) The same procedures described for CHO were followed for 293 cells except that the cells were plated in biocoated plates to avoid clumping.
(§3) Cells were harvested 24–48 hr after adding ligands. […] Twenty μl of lysate was assayed.
On the technique in general: A reporter such as luciferase makes a cellular process visible.

A further experiment has as its system VP16CfEcR. As to the kind of experiment: Transactivation of reporter gene through switch 1.7 in CHO cells. In kind it is cell-based, Choristoneura fumiferana. The conditions noted are these: switch 1.7, pEcRELuc. The protocol:
Six ecdysone response elements (“EcRE”; SEQ ID NO: 55) from the hsp27 gene were placed upstream of the promoter and a luciferase gene (SEQ ID NO: 66). This switch most probably uses endogenous RXR.
as §1, §3

For experiment [1], the system named is CfVgRXR. As to the kind of experiment: Transactivation of reporter gene through switch 1.10 in CHO cells. The experiment is classed as cell-based, Choristoneura fumiferana. The conditions noted are these: switch 1.10, pIND(SP1)LacZ. As to the method: (§4) This example was prepared in the same way as switch 1.9 except MmRXR (SEQ ID NO: 62) was deleted.
as §1, §3

In experiment [2] the test system is CfVgRXR. As to the kind of experiment: Transactivation of reporter gene through switch 1.10 in 293 cells. The experiment is classed as cell-based, Choristoneura fumiferana. The conditions noted are these: switch 1.10, pIND(SP1)LacZ. As to the method: as §4, §1, §2, §3
The test system of the next experiment is GAL4EcR + VP16USP. In words: Transactivation of reporter gene through switch 1.2 in 3T3 cells. Conditions: switch 1.2, pGAL4RELuc. In kind it is cell-based, Choristoneura fumiferana. The protocol:
This construct was prepared in the same way as in switch 1.1 above except MmRXRDEF was replaced with the D, E and F domains from spruce budworm USP (“CfUSPDEF”; SEQ ID NO: 67). The constructs used in this example are similar to those disclosed in U.S. Pat. No. 5,880,333 except that Choristoneura fumiferana USP rather than Drosophila melanogaster USP was utilized.
as §1
The cells were plated when they reached 50% confluency.
as §3

In the case of `CCc1c(OC)cccc1C(=O)NN(C(=O)c1cc(C)cc(C)c1)C(C)(C)C` [N-(2-ethyl-3-methoxybenzoyl)-N′-(3,5-dimethylbenzoyl)-N′-t-butylhydrazine], the “Mean Fold Activation Through N-(2-ethyl-3-methoxybenzoyl)-N′-(3,5-dimethylbenzoyl)-N′-t-butylhydrazine” value at GAL4RXR + VP16DmEcR amounted to 3 fold; with CfVgRXR [2], 3 fold; with GAL4EcR + VP16USP it was 2 fold. In addition, the entries for the “Mean Fold Activation with 50 μM N-(2-ethyl-3-methoxybenzoyl)-N′-(3,5-dimethylbenzoyl)-N′-t-butylhydrazine” value with VP16CfEcR and in the experiment with CfVgRXR [1] were 36 fold and 29 fold, respectively.
